Laboratory results reported in ChEMBL document CHEMBL1909046, “DrugMatrix in vitro pharmacology data”.

Columns and labels:
[1] = DRUGMATRIX: Nicotinic Acetylcholine radioligand binding (ligand: [125I] Epibatidine); type: cell membranes, Membrane; details: imr-32; Not Active = under 50% inhibition at 10 µM
Melanocortin receptor 5 = Melanocortin receptor 5 (Homo sapiens, UniProt P33032); type: cell membranes, HEK293, Membrane; details: hek293; note: in other assays of this panel Not Active means under 50% inhibition at 10 µM
Histamine H2 receptor = Histamine H2 receptor (Homo sapiens, UniProt P25021); type: cell membranes, CHO-K1, Membrane; details: cho-k1; note: in other assays of this panel Not Active means under 50% inhibition at 10 µM
Cytochrome P450 2A6 = target: T1, Cytochrome P450 2A6 (Homo sapiens, UniProt P11509); details: bti-tn-5b1-4; note: in other assays of this panel Not Active means under 50% inhibition at 10 µM
T1 sequence (P11509 whole entry): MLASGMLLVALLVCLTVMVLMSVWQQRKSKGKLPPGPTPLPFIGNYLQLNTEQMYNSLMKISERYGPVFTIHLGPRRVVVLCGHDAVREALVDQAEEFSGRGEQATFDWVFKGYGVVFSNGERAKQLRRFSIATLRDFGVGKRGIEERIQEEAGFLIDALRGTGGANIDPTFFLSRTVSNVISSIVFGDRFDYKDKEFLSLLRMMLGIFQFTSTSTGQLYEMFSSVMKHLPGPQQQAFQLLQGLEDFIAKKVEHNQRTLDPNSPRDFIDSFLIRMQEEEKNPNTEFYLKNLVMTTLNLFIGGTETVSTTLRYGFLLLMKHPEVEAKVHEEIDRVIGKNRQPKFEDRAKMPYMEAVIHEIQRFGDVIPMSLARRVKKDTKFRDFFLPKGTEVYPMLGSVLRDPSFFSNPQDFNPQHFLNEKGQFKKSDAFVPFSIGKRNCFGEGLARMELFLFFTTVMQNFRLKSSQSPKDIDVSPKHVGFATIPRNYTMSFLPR

Insulin receptor = Insulin receptor (Rattus norvegicus, UniProt P15127); type: cell membranes, Wistar, Liver, Membrane; note: in other assays of this panel Not Active means under 50% inhibition at 10 µM
[2] = target: T2, 3-hydroxy-3-methylglutaryl-coenzyme A reductase (Homo sapiens, UniProt P04035); parameters: species or system Escherichia coli
T2 sequence (P04035 whole entry): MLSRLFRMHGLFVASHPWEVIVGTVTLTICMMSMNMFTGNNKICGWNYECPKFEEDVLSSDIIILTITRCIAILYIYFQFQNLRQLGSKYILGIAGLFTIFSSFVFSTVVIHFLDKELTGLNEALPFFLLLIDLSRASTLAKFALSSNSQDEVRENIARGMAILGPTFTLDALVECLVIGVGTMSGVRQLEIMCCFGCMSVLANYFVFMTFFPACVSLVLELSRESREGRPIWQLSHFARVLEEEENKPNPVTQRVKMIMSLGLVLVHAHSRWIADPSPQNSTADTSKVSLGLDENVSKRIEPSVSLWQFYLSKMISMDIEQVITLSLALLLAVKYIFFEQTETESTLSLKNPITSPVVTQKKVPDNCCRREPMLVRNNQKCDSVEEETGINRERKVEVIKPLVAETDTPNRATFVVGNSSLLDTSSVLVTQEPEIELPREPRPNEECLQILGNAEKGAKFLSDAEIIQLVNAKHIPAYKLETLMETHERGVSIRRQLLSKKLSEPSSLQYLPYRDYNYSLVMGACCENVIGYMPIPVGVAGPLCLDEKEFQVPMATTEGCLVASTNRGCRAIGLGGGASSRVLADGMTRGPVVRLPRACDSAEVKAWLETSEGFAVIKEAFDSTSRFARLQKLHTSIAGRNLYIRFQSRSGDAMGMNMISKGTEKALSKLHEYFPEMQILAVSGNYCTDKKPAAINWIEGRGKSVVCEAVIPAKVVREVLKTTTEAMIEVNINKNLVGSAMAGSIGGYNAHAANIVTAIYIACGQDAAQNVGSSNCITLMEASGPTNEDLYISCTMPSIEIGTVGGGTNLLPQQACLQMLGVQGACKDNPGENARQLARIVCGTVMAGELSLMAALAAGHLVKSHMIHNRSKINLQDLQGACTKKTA

Sequence of Melanocortin receptor 5 (P33032 whole entry): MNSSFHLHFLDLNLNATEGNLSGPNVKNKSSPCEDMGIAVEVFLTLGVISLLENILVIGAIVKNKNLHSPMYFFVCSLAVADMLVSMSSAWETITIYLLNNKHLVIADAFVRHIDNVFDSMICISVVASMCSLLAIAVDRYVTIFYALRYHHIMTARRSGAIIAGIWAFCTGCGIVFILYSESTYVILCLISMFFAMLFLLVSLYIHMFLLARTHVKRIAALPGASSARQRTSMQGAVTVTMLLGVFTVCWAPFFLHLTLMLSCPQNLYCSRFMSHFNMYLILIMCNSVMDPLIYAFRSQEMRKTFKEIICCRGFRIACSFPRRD
Sequence of Histamine H2 receptor (P25021 whole entry): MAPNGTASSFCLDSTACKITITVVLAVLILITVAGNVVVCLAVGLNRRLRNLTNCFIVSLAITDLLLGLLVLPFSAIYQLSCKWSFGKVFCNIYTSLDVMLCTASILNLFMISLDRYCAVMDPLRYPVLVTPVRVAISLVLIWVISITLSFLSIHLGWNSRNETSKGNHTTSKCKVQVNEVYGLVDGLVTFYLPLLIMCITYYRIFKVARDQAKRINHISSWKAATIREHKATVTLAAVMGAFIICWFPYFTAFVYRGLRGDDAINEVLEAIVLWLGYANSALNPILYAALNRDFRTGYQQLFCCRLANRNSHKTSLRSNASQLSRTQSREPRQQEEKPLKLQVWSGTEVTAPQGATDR
Sequence of Insulin receptor (P15127 27-759 limits assumed): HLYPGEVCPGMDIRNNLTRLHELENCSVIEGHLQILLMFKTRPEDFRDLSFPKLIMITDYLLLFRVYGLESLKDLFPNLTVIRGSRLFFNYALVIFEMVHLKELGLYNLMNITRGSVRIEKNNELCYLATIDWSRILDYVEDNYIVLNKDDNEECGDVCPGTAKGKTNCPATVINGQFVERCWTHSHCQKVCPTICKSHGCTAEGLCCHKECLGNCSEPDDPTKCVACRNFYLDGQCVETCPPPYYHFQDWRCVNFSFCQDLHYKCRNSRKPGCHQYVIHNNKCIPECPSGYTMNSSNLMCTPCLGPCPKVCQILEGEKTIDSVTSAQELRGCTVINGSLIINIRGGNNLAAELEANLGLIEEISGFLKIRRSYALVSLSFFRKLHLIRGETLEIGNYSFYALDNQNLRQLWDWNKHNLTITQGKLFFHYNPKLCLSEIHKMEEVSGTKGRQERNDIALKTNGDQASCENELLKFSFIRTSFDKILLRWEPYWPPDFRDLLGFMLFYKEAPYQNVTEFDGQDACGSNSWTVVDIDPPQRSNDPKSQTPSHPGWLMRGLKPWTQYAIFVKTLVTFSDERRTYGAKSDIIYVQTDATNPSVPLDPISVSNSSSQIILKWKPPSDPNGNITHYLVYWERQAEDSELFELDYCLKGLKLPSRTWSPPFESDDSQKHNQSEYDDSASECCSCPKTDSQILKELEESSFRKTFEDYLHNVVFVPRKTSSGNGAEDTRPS
Sequence of Insulin receptor (P15127 764-1383 limits assumed): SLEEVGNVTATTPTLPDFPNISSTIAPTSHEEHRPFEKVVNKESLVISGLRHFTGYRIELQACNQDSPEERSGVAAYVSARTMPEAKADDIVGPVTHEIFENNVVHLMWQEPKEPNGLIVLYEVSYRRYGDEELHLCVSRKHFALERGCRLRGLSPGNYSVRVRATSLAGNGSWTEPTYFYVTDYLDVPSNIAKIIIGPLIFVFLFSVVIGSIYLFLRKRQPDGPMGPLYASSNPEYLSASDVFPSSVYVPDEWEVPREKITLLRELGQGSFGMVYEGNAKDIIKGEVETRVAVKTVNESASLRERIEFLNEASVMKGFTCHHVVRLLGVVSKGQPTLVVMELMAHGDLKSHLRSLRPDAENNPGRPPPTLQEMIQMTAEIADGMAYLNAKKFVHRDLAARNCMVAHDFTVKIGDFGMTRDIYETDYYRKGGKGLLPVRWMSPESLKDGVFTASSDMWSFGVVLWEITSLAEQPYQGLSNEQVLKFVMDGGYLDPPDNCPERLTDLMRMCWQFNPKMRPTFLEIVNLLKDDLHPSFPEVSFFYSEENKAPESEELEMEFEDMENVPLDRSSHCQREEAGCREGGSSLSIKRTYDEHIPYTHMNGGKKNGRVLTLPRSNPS

CCC1(CCC(C)C)C(=O)NC(=O)NC1=O [AMOBARBITAL]
Not Active: IC50 [1] | Ki [1] | IC50 (Melanocortin receptor 5) | IC50 (Histamine H2 receptor) | IC50 (Cytochrome P450 2A6) | Ki (Cytochrome P450 2A6) | IC50 (Insulin receptor) | IC50 [2]

AURANOFIN
Not Active: IC50 [1] | Ki [1] | IC50 (Melanocortin receptor 5) | Ki (Melanocortin receptor 5) | IC50 (Histamine H2 receptor) | Ki (Histamine H2 receptor) | IC50 (Cytochrome P450 2A6) | Ki (Cytochrome P450 2A6) | IC50 (Insulin receptor) | Ki (Insulin receptor) | IC50 [2] | Ki [2]

O=C/C=C/c1ccccc1
Not Active: IC50 [1] | Ki [1] | IC50 (Melanocortin receptor 5) | IC50 (Histamine H2 receptor) | IC50 (Cytochrome P450 2A6) | Ki (Cytochrome P450 2A6) | IC50 (Insulin receptor) | IC50 [2]

C=CCc1ccc(O)c(OC)c1 [EUGENOL]
Not Active: IC50 [1] | Ki [1] | IC50 (Melanocortin receptor 5) | IC50 (Histamine H2 receptor) | IC50 (Cytochrome P450 2A6) | Ki (Cytochrome P450 2A6) | IC50 (Insulin receptor) | IC50 [2]

COC1=C(OC)C(=O)C(CCCCCCCCCCO)=C(C)C1=O [IDEBENONE]
Not Active: IC50 [1] | Ki [1] | IC50 (Melanocortin receptor 5) | IC50 (Histamine H2 receptor) | IC50 (Cytochrome P450 2A6) | Ki (Cytochrome P450 2A6) | IC50 (Insulin receptor) | IC50 [2]

Oc1cccc(O)c1O [PYROGALLOL]
Not Active: IC50 [1] | Ki [1] | IC50 (Melanocortin receptor 5) | IC50 (Histamine H2 receptor) | IC50 (Cytochrome P450 2A6) | Ki (Cytochrome P450 2A6) | IC50 (Insulin receptor) | IC50 [2]

C[C@]12C=CC(=O)C=C1CC[C@@H]1[C@@H]2[C@@H](O)C[C@@]2(C)[C@H]1CC[C@]2(O)C(=O)CO [PREDNISOLONE]
Not Active: IC50 [1] | Ki [1] | IC50 (Melanocortin receptor 5) | IC50 (Histamine H2 receptor) | IC50 (Cytochrome P450 2A6) | Ki (Cytochrome P450 2A6) | IC50 (Insulin receptor) | IC50 [2]

CC(=O)[C@H]1[C@H](C#N)C[C@H]2[C@@H]3CC=C4C[C@@H](O)CC[C@]4(C)[C@H]3CC[C@@]21C [PREGNENOLONE CARBONITRILE]
Not Active: IC50 [1] | Ki [1] | IC50 (Melanocortin receptor 5) | IC50 (Histamine H2 receptor) | IC50 (Cytochrome P450 2A6) | Ki (Cytochrome P450 2A6) | IC50 (Insulin receptor) | IC50 [2]

CC(C(=O)O)c1cccc(Oc2ccccc2)c1 (centres undefined) [FENOPROFEN]
Not Active: IC50 [1] | Ki [1] | IC50 (Melanocortin receptor 5) | IC50 (Histamine H2 receptor) | IC50 (Cytochrome P450 2A6) | Ki (Cytochrome P450 2A6) | IC50 (Insulin receptor) | IC50 [2]

NNc1nncc2ccccc12 [HYDRALAZINE]
Not Active: IC50 [1] | Ki [1] | IC50 (Melanocortin receptor 5) | IC50 (Histamine H2 receptor) | IC50 (Cytochrome P450 2A6) | Ki (Cytochrome P450 2A6) | IC50 (Insulin receptor) | IC50 [2]

COc1cc([C@@H]2c3cc4c(cc3[C@@H](O[C@@H]3O[C@@H]5CO[C@@H](C)O[C@H]5[C@H](O)[C@H]3O)[C@H]3COC(=O)[C@H]23)OCO4)cc(OC)c1O [ETOPOSIDE]
Not Active: IC50 [1] | Ki [1] | IC50 (Melanocortin receptor 5) | IC50 (Histamine H2 receptor) | IC50 (Insulin receptor) | IC50 [2]

CC(C)=CCC/C(C)=C/CO [GERANIOL]
Not Active: IC50 [1] | Ki [1] | IC50 (Melanocortin receptor 5) | IC50 (Histamine H2 receptor) | IC50 (Insulin receptor) | IC50 [2]

CN/C(=N\CCSCc1nc[nH]c1C)NC#N [CIMETIDINE]
Not Active: IC50 [1] | Ki [1] | IC50 (Melanocortin receptor 5) | IC50 (Cytochrome P450 2A6) | Ki (Cytochrome P450 2A6) | IC50 (Insulin receptor) | IC50 [2]

COc1ccc2c3c1O[C@H]1C[C@@H](O)C=C[C@@]31CCN(C)C2 [GALANTAMINE]
Not Active: IC50 [1] | Ki [1] | IC50 (Melanocortin receptor 5) | IC50 (Histamine H2 receptor) | IC50 (Insulin receptor) | IC50 [2]
